Laboratory results from a melting point compilation (Tetko et al.; mined from patent text by program, amines drawn as free bases though some values may be those of a salt).

Compound	melting point [°C]
CC(=O)Nc1c(C#N)c(OC(C)=O)c(C(C)=O)n1C	140 to 141
CC(C)C(c1ccccc1N1CCCCC1)C(C(N)=O)c1ccc(C(=O)O)cc1 (stereo not given)	215 to 217
CCOC(=O)c1[nH]c(I)c(C)c1CC	122 to 124
Cc1ccc(CNc2cccc3c2C(=O)N(C2CCC(=O)NC2=O)C3=O)o1 (stereo not given)	305 to 307
CC(=O)Nc1nc(CCc2ccc(NC3=NCCN3)cc2)c(Cc2ccc(S(C)(=O)=O)cc2)s1	139 to 140
Cc1c(NC(=O)c2ccc(-c3ccc(F)cc3F)cc2F)ccc2cc(CN3CCCC3)cnc12	172 to 173
O=c1[nH]c(CCCn2ccnc2)nc2ccc(Cl)cc12	192 to 194
CCCCNc1nc2cnnc(Cl)c2cc1C(=O)OCC	127
O=C(C=Cc1cccc(-c2ccccc2)c1)Nc1ccc(CP2(=O)OCCCO2)cc1	204 to 205
O=CNc1ncc(C#Cc2ccc(Cl)cc2)c(Sc2ccc(O)cc2)n1	261 to 262
CCC(N)(CC)Cc1c[nH]c2ccccc12	92 to 94
Oc1ccc(-c2c3ccccc3cc3sc4cc(O)ccc4c23)cc1	197 to 199
CCN(CC)C(=O)c1ccsc1-c1ccc(F)cc1	62 to 63
O=C(Nc1ccccc1)c1ccc(OC(F)(F)F)c(Nc2cccc(C(F)(F)F)c2)c1	129 to 130
COc1nc(C)cnc1NS(=O)(=O)c1cccnc1-c1ccc(OCC(C)(C)O)cc1	156 to 157
O=C1O[C@H](Cc2ccon2)CN1c1ccc(N2CCC3(CC2)OCCO3)c(F)c1	120 to 122
O=C(O)c1cc(S(=O)(=O)N2CCSCC2)ccc1Br	195 to 198
COCCN1Cc2cc(C(=O)O)ccc2N(C)C(CC(=O)O)C1=O (stereo not given)	228 to 230
O=c1oc2ccccc2c(O)c1C1CC(c2ccc(Cc3ccc(-c4ccccc4)cc3)cc2)Cc2ccccc21 (stereo not given)	118 to 121
COc1cc(C(=O)N2Cc3ccc(C(=O)NCc4ccccc4C(F)(F)F)n3Cc3ccccc32)ccc1-c1ccccc1C	165 to 167
COCCC(=O)OC[C@@H](O)[C@@H]1CC(c2ccc(-c3ccc(N4C[C@H](Cn5ccnn5)OC4=O)cc3F)cn2)=NO1	130
COC(=O)c1ccc(OC)c(CC2COc3ccc(OCc4ccccc4)cc3C2O)c1 (stereo not given)	133 to 135
O=C(Nc1ccccc1)C1(C=Cc2ccccc2)SC=CC1OC(F)F (stereo not given)	80 to 82
Cc1ccccc1CC(=NC#N)NC(NC(=O)Cc1ccc(Cl)cc1)C(C)(C)C (stereo not given)	183 to 185

Compound	melting point [°C]
N=C(N)Nc1ncc(Cl)c2ccc(S(=O)(=O)N(CCOC3CCCCO3)C3(C(=O)O)CCCC3)cc12 (stereo not given)	281 to 289
O=C(O)CSc1cccc(CNC(=O)C2Cc3ccccc3N2S(=O)(=O)c2ccc(-c3cccc(C(F)(F)F)c3)cc2)c1 (stereo not given)	75
CC(C)(C)c1ncc(O)cn1	132
CCOC(=O)c1c(C(=O)OCC)c(-c2ccc3c(c2)OCO3)c2c3c(ccc2c1O)OCO3	192 to 194
COc1ccc(Nc2nc(NC(=O)C(C)(C)C)nc3[nH]c4ccccc4c23)cc1	219 to 220
O=C(O)Cn1cc(-c2ccc3nnn(Cc4ccc5ncccc5c4)c3n2)cn1	> 270
O=[N+]([O-])c1ccc2c(c1)CS(=O)(=O)N2CCF	142 to 144
N=C(NCCCOc1cccc2[nH]c3ccccc3c12)c1cccs1	189 to 190
O=C(O)C1=Cc2cc3occ(-c4ccc(Br)cc4)c3cc2OC1C(F)(F)F (stereo not given)	> 250
Cc1cc(-c2oncc2CO)ccc1Cl	92 to 93
COc1c(OC)c(OC(C)=O)c2ccc(Cl)cc2c1O	155 to 156
O=C(O)c1cccc(-c2ncc(O)cn2)c1	293 to 295
CC(C)(C)OC(=O)N1C(=O)C(Br)=C(c2cn(C(=O)OC(C)(C)C)c3ccc(OCc4ccccc4)cc23)C1=O	134
BrCc1ccc(-c2nc3ccccn3n2)cc1	196
CCCOc1cc(C(=O)NC2CC(C)(C)NC(C)(C)C2)ccc1-c1cc2cc(Cl)c(Cl)cc2[nH]1	> 250
COC1=C(OC)C(=O)C2=C(CC(CCCCCCCCOC(C)=O)C2)C1=O	47 to 48
COc1cc(F)c(C(=O)Cc2c(Cl)cncc2Cl)cc1OC1CCCC1	116
CCN(CC)C(=O)n1cnc(S(=O)(=O)c2ccccc2OCC(F)(F)F)n1	134 to 135
Cc1ccc2c(c1)CCC1=C2CCC(=O)N1C	122
O=C(Nc1ccc(Cl)c(C(F)(F)F)c1)c1ccccc1[N+](=O)[O-]	165 to 169
Cc1ccc2c(c1)Oc1ccc([N+](=O)[O-])cc1C(=O)N2C	156 to 159
Fc1cc2[nH]c(S)nc2cc1N1CCCC1	170 to 171
CCOC(=O)Cc1c(C)nn(-c2ccc(OC)cc2)c1C	71 to 72
COc1ccc(F)c(F)c1C=NO	199 to 201

Compound	melting point [°C]
O=C1C=C(NC(=O)C(=O)c2cn(Cc3ccc([N+](=O)[O-])cc3)c3ccccc23)CO1	275 to 277
CCCCCCCCc1ncc(-c2ccc(O)cc2)cn1	94 to 96
Cc1ccc(S(=O)(=O)OCC2COc3ccc4c(c3O2)CCO4)cc1 (stereo not given)	95 to 96
CCOC(=O)c1ccc(-c2c[nH]c(-c3ccc4c(c3)C(C)(C)CCC4(C)C)n2)cc1	186 to 188
CCCCCCCCCCOc1cc(N=Nc2ccccc2)ccc1OCC1CC1	58 to 60
O=[N+]([O-])c1cccc(Oc2cccc(-c3nnc(Nc4ccc(Cl)c(Cl)c4)s3)c2)c1	210 to 212
CCOC(=O)C1=Cc2cc(C(C)=O)ccc2OC1C(F)(F)F (stereo not given)	101 to 103
CC(C)(C)OC(=O)NCCNC(=O)c1ccc(Br)cn1	118
COc1cc(/C=C/CO)ccc1OCc1coc(-c2ccccc2)n1	113 to 114
Cc1nc(N)nc(N)c1CCCc1ccccc1C(F)(F)F	151 to 158
COc1ccc(S(=O)(=O)c2cc3c(cc2OC)OC(C)(C)[C@@H](O)[C@@H]3N2CCCC2=O)cc1 (relative stereo)	286 to 287
CCCn1c(I)c2c3c(cccc31)C1CC(NC(=O)N(CC)CC)CN(C)C1C2 (stereo not given)	114 to 117
CCOc1ccc(F)cc1C(=O)c1sc2ncc(C#N)cc2c1N	196
O=C1c2ccccc2C(=O)N1CCc1ccc(C(F)(F)F)cc1	134 to 135
Clc1ccc2nc(CN3CCN(c4ccccc4Cl)CC3)cn2c1	123 to 124
O=[N+]([O-])C=C1NCCCCN1	152 to 154
NC(=O)COc1ccc2sc(S(N)(=O)=O)cc2c1	197 to 198
CCNCC1(C)CN(c2c(F)cc3c(=O)c(C(=O)O)cn(C4CC4)c3c2F)C1	250 to 255
CS(=O)(=O)c1ccc(-n2cnc(Cl)c2-c2cnc(Cl)c(Cl)c2)cc1	223 to 230
O=C(c1cccc(C(F)(F)F)c1)N(CCCCc1cccnc1)C1=Nc2cccc3cccc1c23	122 to 123
Cc1cn(C(C)C(=O)O)nc1-c1ccccc1 (stereo not given)	151 to 162
O=C1Nc2cc(Cl)ccc2Oc2ccccc21	250 to 255
CC1(C)CCc2c(sc3cc(OS(=O)(=O)Cc4ccccc4OC(F)(F)F)ccc3c2=O)C1	249
COC(=O)c1cc(NC2CCCCC2)c2cc(Cc3ccc(F)cc3)cnc2c1O	75.5 to 77.5

Compound	melting point [°C]
CC(C)C[C@H](NC(=O)[C@H](Cc1c[nH]cn1)NC(=O)[C@H](Cc1cccc2ccccc12)NC(=O)OCc1ccccc1)[C@@H](O)CC(=O)OCc1ccccc1	102 to 109
COC(=O)[C@H](Cc1ccccc1)NC(=O)CCC#N	71 to 72
COC(=O)CCC(=O)c1ccc(-c2ccc(Cl)cc2F)cc1	90.5 to 92.5
CC12CCC3c4ccc(C(=O)O)cc4CCC3C1CCC2C(=O)c1ccc(-c2ccccc2)cc1 (stereo not given)	268 to 270
O=C1CC2(C(=O)N1)C(=O)N(Cc1ccc(Cl)c(Cl)c1)c1ccccc12 (stereo not given)	205 to 207
Cc1ccc(S(=O)(=O)N(NC=O)c2ccc(NC(=S)Oc3ccccc3)cc2)cc1	195 to 196
CCCCCCCCCCCCCCCCCCOc1cccc(N(CC(=O)OCc2ccccc2)CC(=O)OCc2ccccc2)c1	55 to 57
CN(C)CCCOc1ccc(C(=O)NN)cc1F	109 to 111
Cc1ccc(NC(=O)c2cccnc2Oc2cccc(Cl)c2)cc1	140 to 143
O=C(O)CSCCCCCn1nc(-c2ccccc2)c(-c2ccccc2)c1-c1ccccc1	140 to 142
O=C1OCCC1n1nc(-c2c(-c3ccccc3)nn3ccccc23)ccc1=O (stereo not given)	179 to 180
CCOC(=O)C=Cc1ccc(CCc2nc(-c3ccccc3)oc2C)cc1	73 to 74
Cc1cnccc1C(CCC(=O)O)C(=O)c1cccc(OCc2ccccc2)c1 (racemic)	55 to 57
CCN(CC)c1ccc(C(C)=O)cc1S(N)(=O)=O	103 to 105
CCc1c(-c2ccc(OCc3ccccc3)cc2)c2c(COCCCCCCCN3CCCCC3)cc3c(OCc4ccccc4)ccc1n32	86 to 90
Cc1oc(-c2ccccc2)nc1CCOc1ccc(CCCC2OC(=O)NC2=O)cn1 (stereo not given)	169 to 171
N#Cc1ccc(-c2ccc(-c3cccs3)s2)s1	122 to 125
CC1(Cl)C=CC2=C(c3cccc(CCCC(=O)O)c3)C(CC(=O)Nc3ccc(F)cc3C(F)(F)F)C(=O)OC2=C1 (stereo not given)	196
CCOn1c(SC)n[nH]c1=O	99
Cc1ccc2c(c1)c1cc(C(=O)c3ccccc3C(=O)O)ccc1n2CCC#N	190
COC(=O)COc1ccccc1Oc1cc(NC(C)=O)c(F)cc1Cl	139
CC(Cn1ccc(C(F)(F)F)n1)n1nnc2cc3c(=O)n(C(C)Cn4ncnn4)nnc3cc2c1=O (stereo not given)	95 to 97
Cc1c(F)c(N2CCC(N)C2)c(F)c2c1c(=O)c(C(=O)O)cn2-c1ccc(F)cc1F (stereo not given)	230 to 232
